{"source": "patent US20210008176A1", "about": "“COMPOSITIONS COMPRISING SULFORAPHANE OR A SULFORAPHANE PRECURSOR AND MAGNESIUM” (NUTRAMAX LABORATORIES, INC., priority 2012, published 2021)", "key": {"[1]": {"tested_on": "monocyte chemoattractant protein (MCP-1)", "details": "RAW cells, 1μg/mL LPS 30 minutes, then 24 hours treatment; 0.5 μM SFN, 2.5 mM MgSO4, or both", "procedure": "The following study was conducted to determine the effect of the combination of sulforaphane and magnesium sulfate (MgSO4) on expression of monocyte chemoattractant protein (MCP-1), which is a mediator of inflammation. MCP-1 is chemokine which attracts monocytes, macrophages, and lymphocytes to sites of inflammation. A reduction in MCP-1 is beneficial for the health of endothelial cells which line the cardiovascular system.\nIn the study, RAW cells were activated with 1μg/mL lipopolysaccharide (LPS) for 30 minutes to stimulate the induction of MCP-1 gene expression. Following LPS treatment, the cells were treated with one of the following: (i) DMSO (vehicle control), (ii) 0.5 μM SFN, (iii) 2.5 mM MgSO4, or (iv) the combination of 0.5 μM SFN and 2.5 mM MgSO4. After treatment for 24 hours, the MCP-1 levels were assessed via quantitative RT-PCR."}, "myrosinase": {"tested_on": "myrosinase", "experiment": "Equimolar conversion of glucoraphanin to sulforaphane by myrosinase with and without ascorbic acid", "assay_type": "biochemical, broccoli", "details": "control sample, without ascorbic acid", "procedure": "A two-part experiment was conducted to further elucidate the role of ascorbic acid in modulating myrosinase activity. […] A control sample contained no ascorbic acid, and the enzymatic conversion proceeded unassisted by a co-factor. PART 1. […] PART 2. While keeping the amount of broccoli seed extract fixed at 250 mg, the concentration of ascorbic acid was varied from 0.4 mmol/Liter to 3.8 mmol/Liter."}, "[2]": {"tested_on": "broccoli sprout-derived myrosinase", "experiment": "Consumption of glucoraphanin by myrosinase as a function of ascorbic acid concentration", "assay_type": "biochemical", "details": "for glucoraphanin (GR) content: 38° C.; for Slope (rate of glucoraphanin consumption): linear regression 0-60 min", "procedure": "Consumption of Glucoraphanin as a Function of the Ascorbic Acid Concentration.\nAbout 250 mg of broccoli seed extract containing about 12% (w/w) glucoraphanin were subjected to hydrolysis by a fixed concentration of broccoli sprout-derived myrosinase in the presence of variable concentration of ascorbic acid, ranging from 0 to 600 μmoles/Liter. The reaction mixtures were thermostated at 38° C.; aliquots were withdrawn every 15 minutes for 60 minutes, and concentration of glucoraphanin determined chromatographically. The rate of glucoraphanin consumption was interpreted as the rate its conversion to sulforaphane. Graphical representation of glucoraphanin content reduction as a function of increasing ascorbic acid concentration results in a series of linear plots; the slopes of the linear regression lines reflect the rate of glucoraphanin consumption, in μmoles/minute. It is apparent that in the presence of 600 μmoles/Liter concentration of ascorbic acid, the reaction rate increased 13-fold relative to that which proceeded in the absence of modulatory effects of ascorbic acid."}}, "data": [{"smiles": "C[S+]([O-])CCCCN=C=S", "note": "(stereo not drawn) [sulforaphane, 1-isothiocyanato-4-methylsulfinylbutane]", "values": [{"measurement": "reduction in MCP-1 levels", "setting": "[1]", "value": "approximately 29%"}]}, {"smiles": "C[S+]([O-])CCCC/C(=N\\OS(=O)(=O)O)S[C@@H]1O[C@H](CO)[C@@H](O)[C@H](O)[C@H]1O", "note": "(stereo partly drawn) [GR, 4-methylsulfinylbutyl glucosinolate]", "values": [{"measurement": "stoichiometry of glucoraphanin conversion to sulforaphane", "setting": "myrosinase", "value": "equimolar conversion"}, {"measurement": "glucoraphanin (GR) content", "setting": "[2]; ascorbic acid 0 μM, 0 min", "value": 93.36, "unit": "µmol"}, {"measurement": "glucoraphanin (GR) content", "setting": "[2]; ascorbic acid 0 μM, 15 min", "value": 92.24, "unit": "µmol"}, {"measurement": "glucoraphanin (GR) content", "setting": "[2]; ascorbic acid 0 μM, 30 min", "value": 90.71, "unit": "µmol"}, {"measurement": "glucoraphanin (GR) content", "setting": "[2]; ascorbic acid 0 μM, 45 min", "value": 89.44, "unit": "µmol"}, {"measurement": "glucoraphanin (GR) content", "setting": "[2]; ascorbic acid 0 μM, 60 min", "value": 87.79, "unit": "µmol"}, {"measurement": "Slope (rate of glucoraphanin consumption)", "setting": "[2]; ascorbic acid 0 μM", "value": -0.09293, "unit": "µmol/min"}, {"measurement": "glucoraphanin (GR) content", "setting": "[2]; ascorbic acid 50 μM, 0 min", "value": 93.36, "unit": "µmol"}, {"measurement": "glucoraphanin (GR) content", "setting": "[2]; ascorbic acid 50 μM, 15 min", "value": 89.20, "unit": "µmol"}, {"measurement": "glucoraphanin (GR) content", "setting": "[2]; ascorbic acid 50 μM, 30 min", "value": 84.24, "unit": "µmol"}, {"measurement": "glucoraphanin (GR) content", "setting": "[2]; ascorbic acid 50 μM, 45 min", "value": 80.30, "unit": "µmol"}, {"measurement": "glucoraphanin (GR) content", "setting": "[2]; ascorbic acid 50 μM, 60 min", "value": 76.36, "unit": "µmol"}, {"measurement": "Slope (rate of glucoraphanin consumption)", "setting": "[2]; ascorbic acid 50 μM", "value": -0.286, "unit": "µmol/min"}, {"measurement": "glucoraphanin (GR) content", "setting": "[2]; ascorbic acid 125 μM, 0 min", "value": 93.36, "unit": "µmol"}, {"measurement": "glucoraphanin (GR) content", "setting": "[2]; ascorbic acid 125 μM, 15 min", "value": 84.52, "unit": "µmol"}, {"measurement": "glucoraphanin (GR) content", "setting": "[2]; ascorbic acid 125 μM, 30 min", "value": 75.92, "unit": "µmol"}, {"measurement": "glucoraphanin (GR) content", "setting": "[2]; ascorbic acid 125 μM, 45 min", "value": 68.09, "unit": "µmol"}, {"measurement": "glucoraphanin (GR) content", "setting": "[2]; ascorbic acid 125 μM, 60 min", "value": 59.41, "unit": "µmol"}, {"measurement": "Slope (rate of glucoraphanin consumption)", "setting": "[2]; ascorbic acid 125 μM", "value": -0.5622, "unit": "µmol/min"}, {"measurement": "glucoraphanin (GR) content", "setting": "[2]; ascorbic acid 250 μM Filtered, 0 min", "value": 93.36, "unit": "µmol"}, {"measurement": "glucoraphanin (GR) content", "setting": "[2]; ascorbic acid 250 μM Filtered, 15 min", "value": 86.31, "unit": "µmol"}, {"measurement": "glucoraphanin (GR) content", "setting": "[2]; ascorbic acid 250 μM Filtered, 30 min", "value": 79.44, "unit": "µmol"}, {"measurement": "glucoraphanin (GR) content", "setting": "[2]; ascorbic acid 250 μM Filtered, 45 min", "value": 71.94, "unit": "µmol"}, {"measurement": "glucoraphanin (GR) content", "setting": "[2]; ascorbic acid 250 μM Filtered, 60 min", "value": 65.18, "unit": "µmol"}, {"measurement": "Slope (rate of glucoraphanin consumption)", "setting": "[2]; ascorbic acid 250 μM Filtered", "value": -0.4714, "unit": "µmol/min"}, {"measurement": "glucoraphanin (GR) content", "setting": "[2]; ascorbic acid 250 μM, 0 min", "value": 93.36, "unit": "µmol"}, {"measurement": "glucoraphanin (GR) content", "setting": "[2]; ascorbic acid 250 μM, 15 min", "value": 80.95, "unit": "µmol"}, {"measurement": "glucoraphanin (GR) content", "setting": "[2]; ascorbic acid 250 μM, 30 min", "value": 69.06, "unit": "µmol"}, {"measurement": "glucoraphanin (GR) content", "setting": "[2]; ascorbic acid 250 μM, 45 min", "value": 57.63, "unit": "µmol"}, {"measurement": "glucoraphanin (GR) content", "setting": "[2]; ascorbic acid 250 μM, 60 min", "value": 45.76, "unit": "µmol"}, {"measurement": "Slope (rate of glucoraphanin consumption)", "setting": "[2]; ascorbic acid 250 μM", "value": -0.7901, "unit": "µmol/min"}, {"measurement": "glucoraphanin (GR) content", "setting": "[2]; ascorbic acid 400 μM, 0 min", "value": 93.36, "unit": "µmol"}, {"measurement": "glucoraphanin (GR) content", "setting": "[2]; ascorbic acid 400 μM, 15 min", "value": 78.32, "unit": "µmol"}, {"measurement": "glucoraphanin (GR) content", "setting": "[2]; ascorbic acid 400 μM, 30 min", "value": 62.78, "unit": "µmol"}, {"measurement": "glucoraphanin (GR) content", "setting": "[2]; ascorbic acid 400 μM, 45 min", "value": 47.67, "unit": "µmol"}, {"measurement": "glucoraphanin (GR) content", "setting": "[2]; ascorbic acid 400 μM, 60 min", "value": 33.15, "unit": "µmol"}, {"measurement": "Slope (rate of glucoraphanin consumption)", "setting": "[2]; ascorbic acid 400 μM", "value": -1.007, "unit": "µmol/min"}, {"measurement": "glucoraphanin (GR) content", "setting": "[2]; ascorbic acid 600 μM, 0 min", "value": 93.36, "unit": "µmol"}, {"measurement": "glucoraphanin (GR) content", "setting": "[2]; ascorbic acid 600 μM, 15 min", "value": 75.02, "unit": "µmol"}, {"measurement": "glucoraphanin (GR) content", "setting": "[2]; ascorbic acid 600 μM, 30 min", "value": 55.66, "unit": "µmol"}, {"measurement": "glucoraphanin (GR) content", "setting": "[2]; ascorbic acid 600 μM, 45 min", "value": 37.50, "unit": "µmol"}, {"measurement": "glucoraphanin (GR) content", "setting": "[2]; ascorbic acid 600 μM, 60 min", "value": 22.09, "unit": "µmol"}, {"measurement": "Slope (rate of glucoraphanin consumption)", "setting": "[2]; ascorbic acid 600 μM", "value": -1.2, "unit": "µmol/min"}]}, {"smiles": "O=S(=O)([O-])[O-].[Mg+2]", "note": "[magnesium sulfate]", "values": [{"measurement": "reduction in MCP-1 levels", "setting": "[1]", "value": "approximately 16%"}]}]}
